According to patent US12527775B2 (priority 2020, dated 2026):
Where two headings read alike, the source gives them in different places.

Tests used:
[1] = target: human recombinant 5-HT2A receptor (Homo sapiens (Human), UniProt P28223); test: biochemical; type: binding; conditions: [3H]-Ketanserin 3 nmol/L, Jump-In HEK cell membrane
Protocol: Test Example 1: 5-HT2A Receptor Binding Inhibition Test
(Each Experimental Condition)
Cell membrane: 15 μg of Jump-In HEK cell membrane (expressing human recombinant 5-HT2A receptor) per well
Assay buffer: Tris-HCl 50 mmol/L (pH 7.4) containing NaCl 120 mmol/L, MgCl2·6H2O 1 mmol/L, KCl 5 mmol/L, 0.1% BSA and CaCl2 2 mmol/L
Radioactive ligand: [^3H]-Ketanserin with a final concentration of 3 nmol/L
(§1) Non-specific ligand: Serotonin HCl with a final concentration of 500 μmol/L
(§2) The Kd value was calculated when the lot of cell membrane was changed. […] The radioactive ligand solution was serially diluted from 16 nM at a 2-fold ratio and the count was confirmed with a liquid scintillator. […] After that, filtration was performed with Cell harvester (PerkinElmer). The radioactive ligand solution was dispensed into an empty well of the GF/B UniFilter plate at 10 μL/well. […] The GF/B UniFilter plate was allowed to stand overnight at room temperature. […] The Saturation curve was drawn from the measured value, and the Kd value was calculated from the slope of the Scatchard Plot.
(§3) (Binding Test of the Compound According to the Present Invention)
(§4) After that, filtration was performed with Cell harvester (PerkinElmer).

[2] = target: human recombinant 5-HT2C receptor (Homo sapiens (Human), UniProt P28335); test: biochemical; type: binding
Protocol: Test Example 2: 5-HT2C Receptor Binding Inhibition Test
(Each experimental condition)
Cell membrane: 0.5 μg of Jump-In HEK cell membrane (expressing human recombinant 5-HT2C receptor) per well
Assay buffer: Tris-HCl 50 mmol/L (pH 7.4) containing NaCl 120 mmol/L, MgCl2·6H2O 1 mmol/L, KCl 5 mmol/L, 0.1% BSA and CaCl2) 2 mmol/L
Radioactive ligand: [^3H]-Mesulergine with a final concentration of 1 nmol/L
as §1, §2, §3, §4

hERG channel (IKr) = hERG channel (IKr) (Homo sapiens (Human), UniProt Q12809); test: hERG test (automated whole cell patch clamp, IKr); type: cell-based; conditions: CHO cells expressing hERG channel, pH 7.4, compound concentration of 3 μmol/L, read-out: hERG inhibition rate (tail peak current IKr)
From the text: Test Example 3: hERG Test
For the purpose of assessing risk of an electrocardiogram QT interval prolongation of the compound according to the present invention, effects of the compound according to the present invention on delayed rectifier K^+ current (IKr), which plays an important role in the ventricular repolarization process, was studied using CHO cells expressing human ether-a-go-go related gene (hERG) channel.
After a cell was retained at a membrane potential of −80 mV by whole cell patch clamp method using an automated patch clamp system (QPatch; Sophion Bioscience A/S) and gave a leak potential of −50 mV, IKr induced by depolarization pulse stimulation at +20 mV for 2 seconds, and further, repolarization pulse stimulation at −50 mV for 2 seconds, was recorded. A vehicle, which was the 0.1% dimethyl sulfoxide solution in extracellular solution (NaCl: 145 mmol/L, KCl: 4 mmol/L, CaCl2: 2 mmol/L, MgCl2: 1 mmol/L, glucose:10 mmol/L, HEPES (4-(2-hydroxyethyl)-1-piperazineethanesulfonic acid): 10 mmol/L, pH7.4), or the compound according to the present invention had been dissolved at an objective concentration in the extracellular solution, each of the extracellular solution was applied to the cell at room temperature for 15 minutes or more. From the recording IKr, an absolute value of the tail peak current was measured based on the current value at the resting membrane potential using analysis software (QPatch Assay software; Sophion Bioscience A/S). The % inhibition of the tail peak current after application of the compound according to the present invention relative to the tail peak current after application of the vehicle was calculated, and further correction was performed using the inhibition rate result of the negative control to assess influence of the compound according to the present invention on IKr.

[3] = class symbols, read-out: h-5-HT2A Ki
[4] = human serotonin 5-HT2C receptor binding, [3H]-Mesulergine, read-out: h-5-HT2C Ki
[5] = read-out: human serotonin 5-HT2A receptor binding activity, Ki
[6] = [3H]-Mesulergine 1 nmol/L, Jump-In HEK cell membrane, read-out: human serotonin 5-HT2C receptor binding activity, Ki

hERG channel (IKr), sequence (Q12809 whole entry): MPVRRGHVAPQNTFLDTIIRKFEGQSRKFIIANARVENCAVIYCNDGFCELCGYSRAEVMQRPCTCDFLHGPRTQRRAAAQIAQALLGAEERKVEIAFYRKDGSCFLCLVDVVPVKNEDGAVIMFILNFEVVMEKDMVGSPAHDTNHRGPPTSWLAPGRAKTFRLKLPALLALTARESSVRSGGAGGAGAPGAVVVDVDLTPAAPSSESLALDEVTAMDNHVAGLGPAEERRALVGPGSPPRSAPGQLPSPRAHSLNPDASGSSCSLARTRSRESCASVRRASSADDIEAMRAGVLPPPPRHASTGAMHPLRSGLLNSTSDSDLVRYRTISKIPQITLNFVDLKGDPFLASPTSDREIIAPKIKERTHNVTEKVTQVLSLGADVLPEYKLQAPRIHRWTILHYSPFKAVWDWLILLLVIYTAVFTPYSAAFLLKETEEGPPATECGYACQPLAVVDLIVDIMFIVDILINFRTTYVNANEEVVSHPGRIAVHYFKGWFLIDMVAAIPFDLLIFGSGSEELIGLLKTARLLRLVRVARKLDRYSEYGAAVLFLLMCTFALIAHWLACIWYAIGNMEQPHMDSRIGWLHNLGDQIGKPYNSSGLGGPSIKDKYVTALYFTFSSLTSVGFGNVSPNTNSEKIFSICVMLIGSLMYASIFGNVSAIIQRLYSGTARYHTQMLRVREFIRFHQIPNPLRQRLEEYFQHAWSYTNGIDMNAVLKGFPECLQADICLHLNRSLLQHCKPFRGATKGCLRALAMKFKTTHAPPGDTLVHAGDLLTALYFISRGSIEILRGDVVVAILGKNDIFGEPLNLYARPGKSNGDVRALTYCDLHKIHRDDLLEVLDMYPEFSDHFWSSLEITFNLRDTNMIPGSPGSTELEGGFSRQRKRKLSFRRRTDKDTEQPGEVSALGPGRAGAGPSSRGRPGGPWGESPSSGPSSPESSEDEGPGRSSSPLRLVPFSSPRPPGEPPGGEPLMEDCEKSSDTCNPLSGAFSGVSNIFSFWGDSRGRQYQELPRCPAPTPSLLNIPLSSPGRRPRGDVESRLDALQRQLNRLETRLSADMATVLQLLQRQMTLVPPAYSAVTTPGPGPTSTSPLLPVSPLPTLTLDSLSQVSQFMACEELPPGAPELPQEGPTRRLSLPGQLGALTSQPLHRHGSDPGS
human recombinant 5-HT2C receptor, sequence (P28335 whole entry, looked up): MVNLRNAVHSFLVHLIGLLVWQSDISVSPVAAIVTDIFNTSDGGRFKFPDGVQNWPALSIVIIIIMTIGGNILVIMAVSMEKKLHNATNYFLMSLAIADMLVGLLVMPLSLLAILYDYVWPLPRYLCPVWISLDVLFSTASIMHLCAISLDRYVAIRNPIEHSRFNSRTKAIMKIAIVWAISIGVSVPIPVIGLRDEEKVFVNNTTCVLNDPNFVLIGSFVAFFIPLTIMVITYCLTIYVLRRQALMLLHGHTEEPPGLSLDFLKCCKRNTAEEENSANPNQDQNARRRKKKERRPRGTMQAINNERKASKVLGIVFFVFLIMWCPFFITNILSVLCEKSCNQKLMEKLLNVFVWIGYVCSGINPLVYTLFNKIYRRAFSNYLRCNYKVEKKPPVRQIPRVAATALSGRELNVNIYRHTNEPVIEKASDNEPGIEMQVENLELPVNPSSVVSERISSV

| SMILES | Ki [1, 3] [nM] | Ki [2, 4] [nM] | Ki [1, 5] [nM] | Ki [2, 6] [nM] | inhibition at 3 μmol/L (hERG channel (IKr)) [%] |
| --- | --- | --- | --- | --- | --- |
| CCCOc1ccc(CNC(=O)N(Cc2ccn(C)n2)[C@H]2CCNC[C@H]2F)cc1 [Compound I-122] | < 10 | 10 to 100 | – | – | – |
| CCCOc1ccc(CNC(=O)N(Cc2cc(C)n(C)n2)[C@H]2CCNC[C@H]2F)cc1 [Compound I-123] | < 10 | 10 to 100 | – | – | – |
| CC(C)COc1ccc(CNC(=O)N(Cc2ccn(C)c2)[C@H]2CCNC[C@H]2F)cc1 [Compound I-124] | – | – | 0.69 | 2.22 | – |
| CN1CCC(N(Cc2ccc(F)cn2)C(=O)NCc2ccc(C3CC3)cc2)CC1 [Compound I-125] | < 10 | 10 to 100 | – | – | – |
| CCCOc1ccc(CNC(=O)N(Cc2cc(C)n(C)n2)[C@H]2CCN(C)CC23CC3)cc1 [Compound I-126] | – | – | 1.92 | 1.09 | – |
| CCCOc1ccc(CNC(=O)N(Cc2cc(C)n(C)n2)[C@@H]2CCN(C)CC23CC3)cc1 [Compound I-127] | > 100 | > 100 | – | – | – |
| CC(C)CNc1ccc(CNC(=O)N(Cc2ccc(F)cn2)[C@H]2CCNC[C@H]2F)cc1 [Compound I-129] | – | – | 0.85 | 1.51 | 31.4 |
| COCc1ccc(CNC(=O)N(Cc2ccc(C)cn2)C2CCN(C)CC2)cc1 [Compound I-130] | – | – | 15.3 | 348 | – |
| Cc1cc(CN(C(=O)NCc2ccc(OCC(C)C)cc2)[C@H]2CCNC[C@H]2F)nn1C [Compound I-133] | – | – | – | – | 6.6 |
| CCCOc1ccc(CNC(=O)N(Cc2ccn(C)c2)[C@H]2CCNC[C@H]2F)cc1 [Compound I-134] | – | – | 0.475 | 3.2 | 31.2 |
| CCCOc1ccc(CNC(=O)N(Cc2cc(C)n(C)n2)[C@H]2CCN(C)C[C@H]2F)cc1 [Compound I-139] | – | – | 2.93 | 11.1 | 14.2 |
| CCCOc1ccc(CNC(=O)N(Cc2ccn(C)c2)[C@H]2CCN(C)C[C@H]2F)cc1 [Compound I-141] | – | – | – | – | 49.3 |
| CC(C)COc1ccc(CNC(=O)N(Cc2cc(CF)n(C)n2)[C@H]2CCN(C)C[C@H]2F)cc1 [Compound I-146] | – | – | 1.94 | 4.96 | – |
| CC(C)CN(C)c1ccc(CNC(=O)N(Cc2ccc(F)cn2)[C@H]2CCN(C)C[C@H]2F)cc1 [Compound I-147] | – | – | 0.758 | 2.12 | – |
